Results on 34 molecules are retold here after patent US10703733B2, “MCL-1 inhibitors” (Gilead Sciences, Inc., priority 2018, dated 2020).

Test [1] deals with MCL-1/Bim interaction (recombinant human MCL-1 protein, residues 171-327; biotinylated human Bim peptide, residues 51-76) (Homo sapiens (Human), UniProt Q07820). Description: MCL-1/Bim Binding AlphaLISA Assay. The note with it: 0.0625 nM 6xHis-Mcl-1 (171-327), 0.0625 nM biotinylated-Bim peptide. In a few lines: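 AlphaLISA with 0.0625 nM His-tagged MCL-1 and 0.0625 nM biotin-Bim peptide in 20 mM Hepes pH 7.5, 150 mM NaCl, 0.002% Brij 35, 1 mM DTT, 0.01% BSA. Compound preincubated 1 h with MCL-1, Bim added for 2 h, then acceptor and donor beads 1 h each.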
MCL-1/Bim interaction (recombinant human MCL-1 protein, residues 171-327; biotinylated human Bim peptide, residues 51-76), sequence (Q07820 171-327): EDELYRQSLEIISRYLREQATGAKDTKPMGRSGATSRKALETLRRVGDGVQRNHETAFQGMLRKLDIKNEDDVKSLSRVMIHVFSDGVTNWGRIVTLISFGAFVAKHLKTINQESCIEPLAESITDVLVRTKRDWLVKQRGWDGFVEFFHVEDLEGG

Test [2] has as its system SKBR3 cells. The test can be described thus: SKBR3 Cell Viability Assay (CellTiter Glo). The following applies: CellTiter Glo luminescence, read-out: MCL-1 CV SKBR3 EC50. In kind it is cell-based. In a few lines: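 SKBR3 cells (6,000/well) in McCoy 5A + 10% FBS exposed to serially diluted compound for 72 h at 37° C., 5% CO2. Viability by CellTiter Glo luminescence; % inhibition normalized to DMSO (negative) and 10 μM puromycin (positive).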

Structures are written as SMILES. Like-named read-outs stand apart in the source and are kept apart here.

Consider `CO[C@H]1/C=C/CCC[S@](=O)(NC(=O)N2CCS(=O)(=O)CC2)=NC(=O)c2ccc3c(c2)N(C[C@@H]2CC[C@H]21)C[C@@]1(CCCc2cc(Cl)ccc21)CO3` [Example 74], for which, in test [1], the IC50 is 7.3 nM. Moreover, the EC50 in test [2] (Homo sapiens, SK-BR-3, 72 h) stood at 10000 nM.
Turning to `COc1nn(C(F)F)cc1C(=O)N[S@@]1(=O)=NC(=O)c2ccc3c(c2)N(C[C@@H]2CC[C@H]2[C@@H](OC)/C=C/C[C@H](C)C1)C[C@@]1(CCCc2cc(Cl)ccc21)CO3` [Example 252], in test [1], the IC50 is 0.043 nM. For the same molecule, in test [2] (Homo sapiens, SK-BR-3, 72 h), the EC50 was 82.7 nM.
For `CCN(C)C(=O)N[S@]1(=O)=NC(=O)c2ccc3c(c2)N(C[C@@H]2CC[C@H]2[C@@H](OC)/C=C/CCC1)C[C@@]1(CCCc2cc(Cl)ccc21)CO3` [Example 76], in that order: 10.5 nM and 6330 nM.
In the case of `COc1nn(C)cc1C(=O)N[S@@]1(=O)=NC(=O)c2ccc3c(c2)N(C[C@@H]2CC[C@H]2[C@@H](OC(=O)CN(C)C(=O)CNC(C)(C)C)/C=C/C[C@H](C)[C@H]1C)C[C@@]1(CCCc2cc(Cl)ccc21)CO3` [Example 293], the IC50 in test [1] is 0.058 nM. Further, the EC50 in test [2] (Homo sapiens, SK-BR-3, 72 h) worked out at 69.2 nM.
As to `CO[C@H]1/C=C/CCC[S@@](=O)(NC(=O)[C@@H]2C[C@H]2c2ccnn2C)=NC(=O)c2ccc3c(c2)N(C[C@@H]2CC[C@H]21)C[C@@]1(CCCc2cc(Cl)ccc21)CO3` [Example 83], the IC50 in test [1] came out at 0.1 nM. Further, the EC50 in test [2] (72 hours) came to 460 nM.
As to `COCCn1cc(C(=O)N[S@@]2(=O)=NC(=O)c3ccc4c(c3)N(C[C@@H]3CC[C@H]3[C@@H](OC)/C=C/C[C@H](C)C2)C[C@@]2(CCCc3cc(Cl)ccc32)CO4)cn1` [Example 120], the concentration for half-maximal inhibition (IC50) in test [1] turned out to be 0.167 nM. Further, in test [2] (Homo sapiens, SK-BR-3, 72 h), the EC50 worked out at 106 nM.
For `COCc1oc(C(=O)N[S@@]2(=O)=NC(=O)c3ccc4c(c3)N(C[C@@H]3CC[C@H]3[C@@H](OC)/C=C/C[C@H](C)C2)C[C@@]2(CCCc3cc(Cl)ccc32)CO4)cc1C` [Example 339], in that order: 0.07 nM and 53.2 nM.
The like results for `CO[C@H]1/C=C/C[C@H](C)C[S@@](=O)(NC(=O)Nc2ccccn2)=NC(=O)c2ccc3c(c2)N(C[C@@H]2CC[C@H]21)C[C@@]1(CCCc2cc(Cl)ccc21)CO3` [Example 441] were, in that order, 0.223 nM and 374 nM.
As for `CCC(=O)NS1(=O)=NC(=O)c2ccc3c(c2)N(C[C@@H]2CC[C@H]2[C@@H](OC)/C=C/CC[C@H]1CC)C[C@@]1(CCCc2cc(Cl)ccc21)CO3` (single isomer, unassigned) [Example 65], the IC50 in test [1] turned out to be 1.8 nM. Further, the EC50 in test [2] (72 hours) is 1970 nM.
Turning to `CO[C@H]1/C=C/[C@H](OC)[C@H](C)C[S@@](=O)(NC(=O)c2cc(CN3CCN4CCOC[C@@H]4C3)n(C)c2)=NC(=O)c2ccc3c(c2)N(C[C@@H]2CC[C@H]21)C[C@@]1(CCCc2cc(Cl)ccc21)CO3` [Example 399], the IC50 in test [1] was found to be 0.07 nM. In addition, in test [2] (Homo sapiens, SK-BR-3, 72 h), the EC50 was determined as 20 nM.
For `CCOC1CN(C(=O)N[S@@]2(=O)=NC(=O)c3ccc4c(c3)N(C[C@@H]3CC[C@H]3[C@@H](OC)/C=C/C[C@H](C)C2)C[C@@]2(CCCc3cc(Cl)ccc32)CO4)C1` [Example 235], in that order: 0.035 nM and 39.8 nM.
For `CO[C@H]1/C=C/C[C@H](C)C[S@@](=O)(NC(=O)c2cn(C)nc2Cl)=NC(=O)c2ccc3c(c2)N(C[C@@H]2CC[C@H]21)C[C@@]1(CCCc2cc(Cl)ccc21)CO3` [Example 126], in that order: 0.099 nM and 123 nM.
Take `CO[C@H]1/C=C/CCC[S@@](=O)(NC(=O)CCCC(F)(F)F)=NC(=O)c2ccc3c(c2)N(C[C@@H]2CC[C@H]21)C[C@@]1(CCCc2cc(Cl)ccc21)CO3` [Example 95]: the IC50 in test [1] worked out at 1.1 nM. In addition, the EC50 in test [2] (Homo sapiens, SK-BR-3, 72 h) is 1100 nM.
The like results for `COc1nn(C)cc1C(=O)N[S@@]1(=O)=NC(=O)c2ccc3c(c2)N(C[C@@H]2CC[C@H]2[C@@H](OC)/C=C/[C@H](OCC(=O)N(C)C)[C@H](C)C1)C[C@@]1(CCCc2cc(Cl)ccc21)CO3` [Example 401] were, in that order, 0.044 nM and 118 nM.
Regarding `CO[C@H]1/C=C/CCC[S@](N)(=O)=NC(=O)c2ccc3c(c2)N(C[C@@H]2CC[C@H]21)C[C@@]1(CCCc2cc(Cl)ccc21)CO3` [Example 6], the half-inhibitory concentration (IC50) in test [1] was 27.3 nM. Also, the concentration giving a half-maximal response (EC50) in test [2] (72 hours) came out at 8730 nM.
As to `CO[C@H]1/C=C/C[C@H](C)[C@@H](C)[S@@](=O)(NC(=O)NC2CC2)=NC(=O)c2ccc3c(c2)N(C[C@@H]2CC[C@H]21)C[C@@]1(CCCc2cc(Cl)ccc21)CO3` [Example 414], the IC50 in test [1] was found to be 0.217 nM. The EC50 in test [2] (Homo sapiens, SK-BR-3, 72 h) is 154 nM.
The like results for `CO[C@H]1/C=C/C[C@H](C)[C@@H](C)[S@@](=O)(NC(=O)c2cnn(C)c2)=NC(=O)c2ccc3c(c2)N(C[C@@H]2CC[C@H]21)C[C@@]1(CCCc2cc(Cl)ccc21)CO3` [Example 138] were, in that order, 0.112 nM and 60.5 nM.
The like results for `COCCOC1CCN(C(=O)N[S@@]2(=O)=NC(=O)c3ccc4c(c3)N(C[C@@H]3CC[C@H]3[C@@H](OC)/C=C/C[C@H](C)C2)C[C@@]2(CCCc3cc(Cl)ccc32)CO4)CC1` [Example 234] were, in that order, 0.053 nM and 73.9 nM.
In the case of `COC[C@@H]1Cn2cc(C(=O)N[S@@]3(=O)=NC(=O)c4ccc5c(c4)N(C[C@@H]4CC[C@H]4[C@@H](O)/C=C/C[C@H](C)[C@H]3C)C[C@@]3(CCCc4cc(Cl)ccc43)CO5)cc2CO1` [Example 345], the IC50 in test [1] worked out at 0.037 nM. In test [2] (Homo sapiens, SK-BR-3, 72 h), the EC50 worked out at 22.6 nM.
The like results for `CO[C@H]1/C=C/C[C@H](C)C[S@@](=O)(NC(=O)c2cc3ccncn3c2)=NC(=O)c2ccc3c(c2)N(C[C@@H]2CC[C@H]21)C[C@@]1(CCCc2cc(Cl)ccc21)CO3` [Example 163] were, in that order, 0.263 nM and 98.7 nM.
Regarding `CO[C@H]1/C=C/C[C@H](C)C[S@@](=O)(NC(=O)N[C@H]2C[C@](C)(O)C2)=NC(=O)c2ccc3c(c2)N(C[C@@H]2CC[C@H]21)C[C@@]1(CCCc2cc(Cl)ccc21)CO3` [Example 172], in test [1], the IC50 was 0.022 nM. For the same molecule, the half-maximal effective concentration (EC50) in test [2] (Homo sapiens, SK-BR-3, 72 h) stood at 125 nM.
For `COC[C@@H]1CCN(C(=O)N[S@@]2(=O)=NC(=O)c3ccc4c(c3)N(C[C@@H]3CC[C@H]3[C@@H](OC)/C=C/C[C@H](C)C2)C[C@@]2(CCCc3cc(Cl)ccc32)CO4)C1` [Example 256], in that order: 0.162 nM and 161 nM.
For `CO[C@H]1/C=C/C[C@H](C)C[S@@](=O)(NC(=O)NC2CC3(C2)CC(F)(F)C3)=NC(=O)c2ccc3c(c2)N(C[C@@H]2CC[C@H]21)C[C@@]1(CCCc2cc(Cl)ccc21)CO3` [Example 437], in that order: 0.301 nM and 123 nM.
For `CO[C@H]1/C=C/C[C@H](C)C[S@@](=O)(NC(=O)c2csc(C)n2)=NC(=O)c2ccc3c(c2)N(C[C@@H]2CC[C@H]21)C[C@@]1(CCCc2cc(Cl)ccc21)CO3` [Example 146], in that order: 0.062 nM and 185 nM.
As to `CO[C@H]1/C=C/CCC[S@@](=O)(NC(=O)COC2CCOCC2)=NC(=O)c2ccc3c(c2)N(C[C@@H]2CC[C@H]21)C[C@@]1(CCCc2cc(Cl)ccc21)CO3` [Example 105], the IC50 in test [1] stood at 0.1 nM. In addition, the EC50 in test [2] (Homo sapiens, SK-BR-3, 72 h) was 351 nM.
For `COC1CN(C(=O)N[S@@]2(=O)=NC(=O)c3ccc4c(c3)N(C[C@@H]3CC[C@H]3[C@@H](OC)/C=C/[C@H](OC)[C@H](C)C2)C[C@@]2(CCCc3cc(Cl)ccc32)CO4)C1` [Example 375], in that order: 0.046 nM and 22.4 nM.
The like results for `CO[C@H]1/C=C/C[C@H](C)C[S@@](=O)(NC(=O)c2cn(C)nc2OCC2OCCO2)=NC(=O)c2ccc3c(c2)N(C[C@@H]2CC[C@H]21)C[C@@]1(CCCc2cc(Cl)ccc21)CO3` [Example 356] were, in that order, 0.081 nM and 233 nM.
Take `CO[C@H]1/C=C/CCC[S@@](=O)(NC(=O)CCCn2cccn2)=NC(=O)c2ccc3c(c2)N(C[C@@H]2CC[C@H]21)C[C@@]1(CCCc2cc(Cl)ccc21)CO3` [Example 85]: the IC50 in test [1] is 0.6 nM. In test [2] (Homo sapiens, SK-BR-3, 72 h), the EC50 was found to be 3090 nM.
For `CO[C@H]1/C=C/CCC[S@@](=O)(NC(=O)CCc2cnccn2)=NC(=O)c2ccc3c(c2)N(C[C@@H]2CC[C@H]21)C[C@@]1(CCCc2cc(Cl)ccc21)CO3` [Example 35], in that order: 0.2 nM and 266 nM.
For `CO[C@H]1/C=C/C[C@H](C)C[S@@](=O)(NC(=O)[C@H](O)Cc2ccccc2)=NC(=O)c2ccc3c(c2)N(C[C@@H]2CC[C@H]21)C[C@@]1(CCCc2cc(Cl)ccc21)CO3` [Example 122], in that order: 0.161 nM and 113 nM.
For `CO[C@H]1/C=C/C[C@H](C)C[S@@](=O)(NC(=O)N2CC(OC)(c3nccn3C)C2)=NC(=O)c2ccc3c(c2)N(C[C@@H]2CC[C@H]21)C[C@@]1(CCCc2cc(Cl)ccc21)CO3` [Example 276], in that order: 0.068 nM and 64.3 nM.
Turning to `CO[C@H]1/C=C/C[C@H](C)C[S@@](=O)(NC(=O)N2CC(C#N)C2)=NC(=O)c2ccc3c(c2)N(C[C@@H]2CC[C@H]21)C[C@@]1(CCCc2cc(Cl)ccc21)CO3` [Example 233], the IC50 in test [1] came out at 0.016 nM. For the same molecule, the concentration giving a half-maximal response (EC50) in test [2] (Homo sapiens, SK-BR-3, 72 h) was found to be 47.2 nM.
For `CO[C@H]1/C=C/CCC[S@@](=O)(NC(=O)CCn2nccc2C)=NC(=O)c2ccc3c(c2)N(C[C@@H]2CC[C@H]21)C[C@@]1(CCCc2cc(Cl)ccc21)CO3` [Example 56], in that order: 0.6 nM and 1180 nM.
`CO[C@H]1/C=C/C[C@H](C)C[S@@](=O)(NC(=O)c2ccn(C)c2)=NC(=O)c2ccc3c(c2)N(C[C@@H]2CC[C@H]21)C[C@@]1(CCCc2cc(Cl)ccc21)CO3` [Example 147]: the IC50 in test [1] came to 0.051 nM. In addition, the EC50 in test [2] (Homo sapiens, SK-BR-3, 72 h) was determined as 111 nM.
